Measured values from PMC12195967, “Cobalt(II) Complexes of 4′–Nitro–Fenamic Acid: Characterization and Biological Evaluation” (Molecules, 2025).
“And” between values parts separate entries of the source, which are not always exact repeats. Equal entries are not always repeated.

How the values were obtained:
[1] = ABTS radical cation scavenging; settings: compounds 0.1 mM; absorbance 734 nm after 1 min
Method: The ABTS-scavenging was measured through the discoloration of a dark green solution containing the cationic radical ABTS^•+, which was induced from the oxidation derived from hydrogen-donating antioxidants, either complexes or standards, and is often considered a marker of total oxidation capacity. […] Such an increase in activity upon coordination is expected for metal–NSAID complexes.
(§1) S1 Antioxidant activity assay
The antioxidant activity of the compound was evaluated via the ability to scavenge in vitro free radicals such as DPPH and ABTS and to reduce H2O2. All the experiments were carried out at least in triplicate and the standard deviation of absorbance was less than 10% […]
S1.2 Assay of radical cation ABTS−scavenging activity
The ABTS assay was performed to determine the activity of the compounds to scavenge the radical cation ABTS. Initially, a water solution of ABTS was prepared (2 mM).
ABTS radical cation (ABTS+·) was produced by the reaction of ABTS stock solution with potassium persulfate (0.17 mM) and the mixture was stored in the dark at room temperature for 12−16 h before its use. The ABTS was oxidized incompletely because the stoichiometric reaction ratio of ABTS and potassium persulfate is 1:0.5. The absorbance became maximal and stable only after more than 6 h of reaction although the oxidation of the ABTS started immediately. The radical was stable in this form for more than 2 days when allowed to stand in the dark at room temperature. Afterwards, the ABTS+· solution was diluted in ethanol to an absorbance of 0.70 at 734 nm and 10 μL of diluted compounds or standards (0.1 mM) in DMSO were added. The absorbance was recorded out exactly 1 min after initial mixing.
The ABTS–radical scavenging activity of the compounds was expressed as the percentage inhibition of the absorbance of the initial ABTS solution (ABTS%). […]

[2] = Reduction of hydrogen peroxide; settings: compounds 0.1 mM; phosphate buffer pH 7.4; 10 min
Method: Harmful hydroxyl radicals are released when hydrogen peroxide interacts with transition metal ions, leading to oxidative stress. Consequently, both oxidative stress and the production of reactive oxygen species could be reduced by ^•OH scavengers and H2O2 reducing agents.
as §1
The antioxidant activity of the compound was evaluated via the ability to scavenge in vitro free radicals such as DPPH and ABTS and to reduce H2O2. […]
S1.3 Reduction of hydrogen peroxide
The ability of the compounds to reduce hydrogen peroxide (H2O2) was estimated according to the method described in the literature. The reaction mixture contained 20 μL of each of the tested compounds (0.1 mM) and 5 μL H2O2 solution (40 mM) in phosphate […]
buffer (50 mM, pH 7.4). The absorbance was measured at 230 nm after 10 min. The antioxidant activity (reduction of H2O2) of the compounds was expressed as the percentage decrease of the initial H2O2 solution (H2O2%). […]

[3] = target: T1, bovine serum albumin (BSA) (Bos taurus, UniProt P02769); experiment: Competitive albumin-fluorescence studies with warfarin and ibuprofen; assay type: binding; settings: for preferential BSA-binding site: from comparison of K with and without site markers; for K(BSA, ibuprofen): in the presence of ibuprofen; for K(BSA, warfarin): in the presence of warfarin
T1 construct: purchased Sigma-Aldrich Co
Description: One of the primary functions of SAs is the transport of various compounds such as drugs, fatty acids and hormones. Albumins are composed of three domains, I, II and III, and each of them is subdivided into A and B subdomains that host compounds [90]. […] Site markers like warfarin and ibuprofen are used to identify in which albumin site a compound is bound, as these markers bind selectively to Sudlow’s sites I and II, respectively. The SA-binding site of the compounds was investigated by calculating the SA-binding constant for both HSA and BSA in the presence of ibuprofen or warfarin and comparing them with the values previously derived (in the absence of any marker).
Incremental addition of the compounds into a solution containing the SA (HSA or BSA) and the respective site marker (warfarin or ibuprofen) induced quenching of the initial fluorescence emission band (Figures S19–S22). The SA-binding constants for each compound in the presence of warfarin or ibuprofen were calculated with the Scatchard equation (Equation (S7)) and the corresponding plots (Figures S23–S26) and are compared with those calculated in the absence of any site marker to determine the preferable drug site. […]
From the Scatchard equation:
[Q] = nK − K Io (equation S7) where n is the number of binding sites per albumin and K is the albumin−binding constant (K, in M−1) is calculated from the slope in plots (ΔI/Io)/[compound] versus (ΔI/Io) and n is given by the ratio of y intercept to the slope.
S5.2 Competitive albumin−fluorescence studies with warfarin and ibuprofen The competitive studies with warfarin or ibuprofen (as site−markers) were performed by tryptophan fluorescence quenching experiments using a fixed concentration of the albumin and site markers (3 μM) in buffer (containing 15 mM trisodium citrate and 150 mM NaCl at pH 7.0). The fluorescence emission spectra were recorded in the presence of increasing amounts of the compounds as quenchers with an excitation wavelength of 295 nm. The Scatchard equation (equation S7) and plots were applied on the corrected albumin−fluorescence emission spectra to determine the albumin−binding constant of the compounds in the presence of warfarin or ibuprofen.

Solubility = assay type: physicochemical

T1 sequence (P02769 25-607): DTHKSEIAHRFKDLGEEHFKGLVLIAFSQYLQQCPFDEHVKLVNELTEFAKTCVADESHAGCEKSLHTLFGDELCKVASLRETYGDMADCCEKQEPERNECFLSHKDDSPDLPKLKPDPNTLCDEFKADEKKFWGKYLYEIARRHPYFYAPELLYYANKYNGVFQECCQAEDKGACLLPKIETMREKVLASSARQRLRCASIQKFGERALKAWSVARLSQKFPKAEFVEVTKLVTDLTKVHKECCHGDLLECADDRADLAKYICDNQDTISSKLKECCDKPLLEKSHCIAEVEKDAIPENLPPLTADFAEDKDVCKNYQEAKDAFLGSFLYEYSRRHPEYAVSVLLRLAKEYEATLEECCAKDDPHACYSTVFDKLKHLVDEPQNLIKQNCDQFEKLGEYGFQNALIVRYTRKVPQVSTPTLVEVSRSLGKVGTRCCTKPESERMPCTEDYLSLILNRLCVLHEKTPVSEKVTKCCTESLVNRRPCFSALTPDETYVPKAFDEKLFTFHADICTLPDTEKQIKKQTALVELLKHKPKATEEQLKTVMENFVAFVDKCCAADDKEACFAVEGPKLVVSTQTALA

| Compound | %ABTS radical scavenging activity (ABTS%) [1] | H2O2-reducing ability (H2O2%) [2] | preferential BSA-binding site [3] | K(BSA, ibuprofen) [3] | K(BSA, warfarin) [3] | solubility in H2O and MeCN (Solubility) |
| --- | --- | --- | --- | --- | --- | --- |
| O=C(O)c1ccccc1Nc1ccc([N+](=O)[O-])cc1 [4′–NO2–fenH, 4′–nitrofenamic acid] | Not active | 66.46% and 66.46 ± 0.33% | Sudlow’s site I | 2.70 (±0.11) × 10^5 M^−1 | 1.41 (±0.06) × 10^5 M^−1 | – |
| CO.CO.CO.CO.O=C([O-])c1ccccc1Nc1ccc([N+](=O)[O-])cc1.O=C([O-])c1ccccc1Nc1ccc([N+](=O)[O-])cc1.[Co+2] [Complex 1, [Co(4′–NO2–fen)2(MeOH)4]] | 24.68 ± 0.35% | 72.68 ± 0.63% | Sudlow’s site I | 1.38 (±0.08) × 10^5 M^−1 | 1.06 (±0.04) × 10^5 M^−1 | partially soluble |
| O=C([O-])c1ccccc1Nc1ccc([N+](=O)[O-])cc1.O=C([O-])c1ccccc1Nc1ccc([N+](=O)[O-])cc1.[Co+2].c1ccc(Nc2ccccn2)nc1 [Complex 2, [Co(4′–NO2–fen)2(bipyam)]] | 43.65 ± 0.37% | 77.59 ± 0.28% | Sudlow’s site II | 1.42 (±0.09) × 10^5 M^−1 | 1.85 (±0.06) × 10^5 M^−1 | partially soluble |
| O=C([O-])c1ccccc1Nc1ccc([N+](=O)[O-])cc1.O=C([O-])c1ccccc1Nc1ccc([N+](=O)[O-])cc1.[Co+2].c1cnc2c(c1)ccc1cccnc12 [Complex 3, [Co(4′–NO2–fen)2(phen)]] | 48.12 ± 0.88% | 69.48 ± 0.37% | Sudlow’s site I | 1.95 (±0.03) × 10^5 M^−1 | 1.60 (±0.06) × 10^5 M^−1 | partially soluble |
| C[O-].C[O-].Cc1ccc2ccc3ccc(C)nc3c2n1.Cc1ccc2ccc3ccc(C)nc3c2n1.O=C([O-])c1ccccc1Nc1ccc([N+](=O)[O-])cc1.O=C([O-])c1ccccc1Nc1ccc([N+](=O)[O-])cc1.[Co+2].[Co+2] [Complex 4, [Co2(4′–NO2–fen)2(μ–CH3O)2(neoc)2]] | 21.39 ± 0.22% | 72.44 ± 0.42% | Sudlow’s site I | 3.60 (±0.14) × 10^5 M^−1 | 2.40 (±0.06) × 10^5 M^−1 | partially soluble |
